For 14 compounds, IC50 results are on record in patent US20250129088A1, “CEREBLON E3 UBIQUITIN LIGASE INHIBITOR” (Gan & Lee Pharmaceuticals Co., Ltd., priority 2022, published 2025).

Test [1] relates to Z138 cells. Description: Z138 cell proliferation inhibition, CCK-8. It counts as cell-based. The settings on record: Homo sapiens, Z-138, 96 h, Z138, 4 days. How it is done:
The complete medium required for Z138 cells is IMDM (ATCC, Product number: 30-2005) basal medium containing 10% horse serum. Z138 cells were seeded in a 96-well plate at a density of 10,000 cells/well, and different concentrations of the compound of the present invention and a positive control sample Ibrutinib (source: Bide Pharmaceuticals) were prepared to treat the cells. The cells were incubated in a 37° C., 5% CO2 cell incubator for 4 days. Cell viability was detected using the CCK-8 kit (Beyotime, Product number: C0040) according to the manufacturer's instructions. According to the inhibition rate, the GraphPad Prism software was used to calculate the IC50 value of each compound for 4 days, and the results are shown in Table 14.

In test [2] the test system is JeKo-1 cells. Description: JeKo-1 cell proliferation inhibition, CCK-8. Type of test: cell-based. To be noted: Homo sapiens, 96 h, JeKo-1, 4 days. How it is done: The complete medium required for JeKo-1 cells is RPMI1640 (ATCC, Product number: 30-2001) basal medium containing 20% fetal bovine serum. The JeKo-1 cells were seeded in a 96-well plate at a density of 10,000 cells/well, and different concentrations of the compounds of the present invention were prepared to treat the cells at the same time. The cells were incubated at a 37° C., 5% CO2 cell culture incubator for 4 days. Cell viability was detected using the CCK-8 kit (Beyotime, Product number: C0040) according to the manufacturer's instructions. According to the inhibition rate, the GraphPad Prism software was used to calculate the IC50 value of each compound for 4 days, and the results are shown in Table 13.

For test [3], the target named is E3 ubiquitin ligase CRBN (Homo sapiens (Human), UniProt Q96SW2). Description: CRBN binding activity, HTRF competition with Thalidomide-Red (CEREBLON BINDING KIT). The settings on record: competition with XL665-labelled thalidomide, 3 hours room temperature. How it is done:
From this, the binding force of the compounds to the CRBN protein was determined.
CRBN binding activity test kit (CEREBLON BINDING KITS (PE, 64BDCRBNPEG).
The detection is based on homogeneous time-resolved fluorescence (HTRF) technology.
The donor used in this kit was Europium-labeled GST antibody (GST Eu Cryptate Antibody), and the acceptor was thalidomide labeled with XL665 (Thalidomide-Red reagent). The donor binded to the CRBN protein containing the GST tag.
The donor and acceptor were diluted 50 times using the binding buffer from the kit (PROTAC binding buffer 1). The CRBN protein was diluted 45 times. The disclosed compound solution at 8 mM was diluted 10 times with the diluent from the kit (1× diluent), followed by a five-fold gradient dilution, performed 7 times sequentially.
Incubate at room temperature for 3 hours.
The ratio of the emission signals from the acceptor and donor in each individual well is calculated.
The coefficient of variation (CV)=standard deviation (SD)/mean Ratio*100
Using GraphPad Prism, IC50 values were calculated based on compound concentration, Ratio and coefficient of variation.
On the technique in general: In TR-FRET formats the signal depends on donor and acceptor labels being close together.

For test [4], the system named is NCI-H358 cells. As to the kind of experiment: NCI-H358 cell proliferation inhibition, CCK-8. Type of test: cell-based. To be noted: Homo sapiens, 96 h, NCI-H358, 4 days. How it is done: The complete medium required for NCI-H358 cells is RPMI1640 (ATCC, Product number: 30-2001) basal medium containing 10% fetal bovine serum. NCI-H358 cells were seeded in a 96-well plate at a density of 2,800 cells/well, and the next day, different concentrations of the compounds of the present invention were prepared to treat the cells, and the cells were treated for 4 days in a 37° C., 5% CO2 cell culture incubator. Cell viability was detected using a CCK-8 kit (Beyotime, Product number: C0040) according to the manufacturer's instructions. According to the inhibition rate, the GraphPad Prism software was used to calculate the IC50 value of each compound for 4 days, and the results are shown in Table 5.

Each structure is given as a SMILES string. pIC50: −log10 of the molar value.

On to `Nc1ncnc2c1c(-c1ccc(Oc3ccccc3)cc1)nn2[C@@H]1CCCN(CCOCCC(=O)N2CCC3(CCc4cc5c(cc4O3)C(=O)N(C3CCC(=O)NC3=O)C5=O)CC2)C1` (stereo partly drawn) [PROTAC 32, 1-(3-(2-((R)-3-(4-amino-3-(4-phenoxyphenyl)-1H-pyrazolo[3,4-d]pyrimidin-1-yl)piperidin-1-yl)ethoxy)propionyl)-7′-(2,6-dioxopiperidin-3-yl)-3′,4′-dihydro-6′H-spiro[piperidin-4,2′-pyrano[2,3-f]isoindole]-6′,8′(7′H)-dione], for which the pIC50 was 4.80 in test [1] and 4.74 in test [2]. For the compound `O=C1CCC(N2Cc3cc4c(cc3C2=O)CCC2(CNC2)O4)C(=O)N1` (stereo not shown) [Compound13, 3-(6′-oxo-3′,4′,6′,8′-tetrahydro-7′H-spiro[azetidine-3,2′-pyrano[2,3-f]isoindole]-7′-yl)piperidine-2,6-dione], the pIC50 in test [3] was 5.41. Turning to `COc1cc2ncnc(Nc3ccc(F)c(Cl)c3)c2cc1OCCCN1CCN(CCOCCC(=O)N2CCC3(CCc4cc5c(cc4O3)C(=O)N(C3CCC(=O)NC3=O)C5)CC2)CC1` (stereo not shown) [PROTAC 17, 3-(1-(3-(2-(4-(3-((4-((3-chloro-4-fluorophenyl)amino)-7-methoxyquinazolin-6-yl)oxy)propyl)piperazin-1-yl)ethoxy)propionyl)-8′-oxo-3′,4′,6′,8′-tetrahydro-7′H-spiro[piperidine-4,2′-pyrano[2,3-f]isoindole]-7′-yl)piperidine-2,6-dione], the pIC50 in test [4] is 4.77. Turning to `Nc1ncnc2c1c(-c1ccc(Oc3ccccc3)cc1)nn2[C@@H]1CCCN(CCOCCC(=O)N2CCC3(CCc4cc5c(cc4O3)CN(C3CCC(=O)NC3=O)C5=O)CC2)C1` (stereo partly drawn) [PROTAC 35, 3-(1-(3-(2-((R)-3-(4-amino-3-(4-phenoxyphenyl)-1H-pyrazolo[3,4-d]pyrimidine-1-yl)piperidin-1-yl)ethoxy)propionyl)-6′-oxo-3′,4′,6′,8′-tetrahydro-7′H-spiro[piperidine-4, 2′-pyrano[2,3-f]isoindol]-7′-yl)piperidine-2,6-dione], the pIC50 in test [1] is 4.65; in test [2] it was 4.72. As to `O=C1CCC(N2Cc3cc4c(cc3C2=O)OCC2(CCNCC2)O4)C(=O)N1` (stereo not shown) [Compound16, 3-(6′-oxo-6′,8′-dihydro-3′H,7′H-spiro[piperidine-4,2′-[1,4]dioxino[2,3-f]isoindole]-7′-yl)piperidine-2,6-dione], in test [3], the pIC50 was 5.92.

For the compound `Nc1ncnc2c1c(-c1ccc(Oc3ccccc3)cc1)nn2[C@@H]1CCCN(CCOCCC(=O)N2CC3(CCc4cc5c(cc4O3)C(=O)N(C3CCC(=O)NC3=O)C5=O)C2)C1` (stereo partly drawn) [PROTAC 33, 1-(3-(2-((R)-3-(4-amino-3-(4-phenoxyphenyl)-1H-pyrazolo[3,4-d]pyrimidin-1-yl)piperidin-1-yl)ethoxy)propionyl)-7′-(2,6-dioxopiperidin-3-yl)-3′,4′-dihydro-6′H-spiro[azetidine-3,2′-pyrano[2,3-f]isoindole]-6′,8′(7′H)-dione], the negative logarithm of the IC50 (pIC50) in test [1] was 4.46; in test [2], 4.20.

Regarding `COc1cc2ncnc(Nc3ccc(F)c(Cl)c3)c2cc1OCCCN1CCN(CCOCCC(=O)N2CC3(CCc4cc5c(cc4O3)C(=O)N(C3CCC(=O)NC3=O)C5=O)C2)CC1` (stereo not shown) [PROTAC 23, 1-(3-(2-(4-(3-((4-((3-chloro-4-fluorophenyl)amino)-7-methoxyquinazolin-6-yl)oxy)propyl)piperazin-1-yl)ethoxy)propionyl)-7′-(2,6-dioxopiperidin-3-yl)-3′,4′-dihydro-6′H-spiro[azetidine-3,2′-pyrano[2,3-f]isomdole]-6′,8′(7′H)-dione], the pIC50 in test [4] is 4.15. The same measure, in the same setting: to `COc1cc2ncnc(Nc3ccc(F)c(Cl)c3)c2cc1OCCCN1CCN(CCOCCC(=O)N2CCC3(CC2)COc2cc4c(cc2O3)CN(C2CCC(=O)NC2=O)C4=O)CC1` (stereo not shown) [PROTAC 18, 3-(1-(3-(2-(4-(3-((4-((3-chloro-4-fluorophenyl)amino)-7-methoxyquinazolin-6-yl)oxy)propyl)piperazin-1-yl)ethoxy)propionyl)-6′-oxo-6′,8′-dihydro-3′H,7′H-spiro[piperidine-4, 2′-[1,4]dioxino[2,3-f]isoindol]-7′-yl)piperidine-2,6-dione] belongs 4.37. For the compound `O=C1CCC(N2C(=O)c3cc4c(cc3C2=O)C2(CCNCC2)CO4)C(=O)N1` (stereo not shown) [Compound17, 6-(2,6-dioxopiperidin-3-yl)-6-hydro-2H, 5H-spiro[[2,3-f]isoindole-3,4′-piperidin]-5,7-dione], in test [3], the pIC50 was 4.82.

For the compound `Nc1ncnc2c1c(-c1ccc(Oc3ccccc3)cc1)nn2[C@@H]1CCCN(CCOCCC(=O)N2CCC3(CCc4cc5c(cc4O3)C(=O)N(C3CCC(=O)NC3=O)C5)CC2)C1` (stereo partly drawn) [PROTAC 36, 3-(1-(3-(2-((R)-3-(4-amino-3-(4-phenoxyphenyl)-1H-pyrazolo[3,4-d]pyrimidine-1-yl)piperidin-1-yl)ethoxy)propionyl)-8′-oxo-3′,4′,6′,8′-tetrahydro-7′H-spiro[piperidine-4, 2′-pyrano[2,3-f]isoindol]-7′-yl)piperidine-2,6-dione], the pIC50 in test [1] is 4.59; in test [2], 4.72.

With `O=C1CCC(N2Cc3cc4c(cc3C2=O)CCC2(CCNCC2)O4)C(=O)N1` (stereo not shown) [Compound12, 3-(6′-oxo-3′,4′,6′,8′-tetrahydro-7′H-spiro[piperidine-4,2′-pyrano[2,3-f]isoindole]-7′-yl)piperidine-2,6-dione], in test [3], the pIC50 was 5.52. For the compound `Nc1ncnc2c1c(-c1ccc(Oc3ccccc3)cc1)nn2[C@@H]1CCCN(CCOCCC(=O)N2CCC3(CC2)COc2cc4c(cc2O3)CN(C2CCC(=O)NC2=O)C4=O)C1` (stereo partly drawn) [PROTAC 37, 3-(1-(3-(2-((R)-3-(4-amino-3-(4-phenoxyphenyl)-1H-pyrazolo[3,4-d]pyrimidine-1-yl)piperidin-1-yl)ethoxy)propionyl)-6′-oxo-6′,8′-dihydro-3′H,7′H-spiro[piperidine-4,2′-[1,4]dioxino[2,3-f]isoindole]-7′-yl)piperidine-2,6-dione], the results for the pIC50 in test [1] and in test [2] were 4.44 and 4.49, respectively. For the compound `O=C1CCC(N2C(=O)c3ccc4c(c3C2=O)C2(CCNCC2)CO4)C(=O)N1` (stereo not shown) [Compound27, 2-(2,6-dioxopiperidin-3-yl)-2-hydro-1H,7H-spiro[furo[3,2-e]isoindole-8,4′-piperidine]-1,3-dione], the pIC50 in test [3] was 4.44. In turn, `COc1cc2ncnc(Nc3ccc(F)c(Cl)c3)c2cc1OCCCN1CCN(CCOCCC(=O)N2CCC3(CCc4cc5c(cc4O3)C(=O)N(C3CCC(=O)NC3=O)C5=O)CC2)CC1` (stereo not shown) [PROTAC 21, 1-(3-(2-(4-(3-((4-((3-chloro-4-fluorophenyl)amino)-7-methoxyquinazolin-6-yl)oxy)propyl)piperazin-1-yl)ethoxy)propionyl)-7′-(2,6-dioxopiperidin-3-yl)-3′,4′-dihydro-6′H-spiro[piperidine-4,2′-pyrano[2,3-f]isoindole]-6′,8′(7′H)-dione] had a negative logarithm of the IC50 (pIC50) in test [4] of 4.64.

The term pIC50 denotes −log10 of the IC50, conventionally taken in molar units. Higher therefore signals a low IC50.
